The results in this text go back to patent publication US20230002324A1, “NAPHTHOQUINONE DERIVATIVES FOR TREATMENT OF OXIDATIVE STRESS DISORDERS” (PTC THERAPEUTICS, INC., priority 2019, published 2023).

Bounds are passed on as bounds.

The test system of the assay is normal human fibroblasts (NHF, GM21811). The assay can be described thus: NHF GM21811 RSL3 challenge cell survival (rescue) assay. The class given is cell-based. As to conditions: Fibroblast, NHF cells, RSL3 2 micromolar, 48 h, Cell Titer Glo, read-out: NHF GM21811 RSL3 Survival EC50. An excerpt: In neuronal cells excess extracellular glutamate inhibits the cystine/glutamate antiporter leading to intracellular cysteine depletion, GSH depletion, reactive oxygen species (ROS) production and cell death, a phenomenon termed oxidative glutamate toxicity, oxytosis, or ferroptosis. […] Q7 cells (ST HDH Q7/7; immortalized mouse striatal cells) challenged with cystine-free media or the selective, irreversible GPX4 inhibitor, methyl (1S,3R)-2-(2-chloroacetyl)-1-(4-(methoxycarbonyl)phenyl)-2,3,4,9-tetrahydro-1H-pyrido[3,4-b]indole-3-carboxylate (hereafter referred to as RSL3), recapitulate this phenotype, as do normal human fibroblasts (NHF) challenged with RSL3. An initial screen was performed to identify compounds effective in rescuing Q7 and/or NHF cells from death resulting from cystine deprivation or RSL3 challenge. This method is further described in Yonezawa et al., J. Neurochem 67, 566-573 (1996), Li et al., J Neurosci., 23, 5816-5826 (2003), Yang and Stockwell, Chem Biol., 15: 234-45 (2008), and Yang et al., Cell 156, 317-331 (2014). See also Hinman A, Holst C R, Latham J C, et al. Vitamin E hydroquinone is an endogenous regulator of ferroptosis via redox control of 15-lipoxygenase. PLoS One. 2018; 13(8):e0201369. Published 2018 Aug. 15. doi:10.1371/journal.pone.0201369; and Kahn-Kirby A H, Amagata A, Maeder C I, et al. Targeting ferroptosis: A novel therapeutic strategy for the treatment of mitochondrial disease-related epilepsy. PLoS One. 2019; 14(3):e0214250. Published 2019 Mar. 28. doi:10.1371/journal.pone.0214250.
DMEM (Catalog no. 11995-040), DMEM without Cystine (Catalog no. 21013-024), DMEM without Glucose (Catalog A1443001), PBS (Phosphate buffered saline), Penicillin-streptomycin mix, L-Glutamine, Glucose, Phenol Red, and Pyruvate were purchased from ThermoFisher Scientific (Gibco). Fetal Bovine Serum was obtained from Mediatech, Inc., or Sigma Aldrich. Mouse striatum derived ST HDH Q7/7 (Q7) and normal human skin fibroblast (NHF, product number GM21811) cells were obtained from the Coriell Institute. Methionine and Vitamin K2 were purchased from Sigma Aldrich. RSL3 was synthesized as previously described (see e.g. US Patent Publication US2010/0081654). Cell Titer Glo 2.0 was purchased from Promega. Q7 cell culture medium (Q7 growth medium) was made by combining 50 mL Fetal Bovine Serum, 100 U/mL penicillin, and 100 microgram/mL streptomycin; DMEM was added to make the volume up to 500 mL. Assay medium for the Cystine Deprivation assay was prepared by combining 50 mL Fetal Bovine Serum, 100 U/mL penicillin, 100 microgram/mL streptomycin, 4 mM L-Glutamine, 1 mM Pyruvate and 30 mg/L Methionine; DMEM without Cystine was added to make the volume up to 500 mL. NHF cell culture medium (NHF growth medium) was made by combining 50 mL Fetal Bovine Serum, 100 U/mL penicillin, 100 microgram/mL streptomycin, 2.8 mL 20% Glucose solution (final concentration 6 mM), L-glutamine (final concentration 2 mM), phenol red (final concentration 15 mg/L); DMEM without Glucose was added to make the volume up to 500 mL. Assay medium for the RSL3 challenge assay was identical to Growth medium. While not in use during the course of the experiments, these solutions were stored at 4° C. The cells were grown in 150-cm^2 tissue culture-treated flasks. Every third or fourth day, the cells were sub-cultured by trypsinization and re-seeded at a cell density of 600,000 (Q7) or 300,000 (NHF) cells per flask.
Q7 or NHF cells were cultured routinely as described herein. For 384-well cell survival assays, cells were seeded in clear bottom, black wall 384-well tissue culture-treated polystyrene plates by re-suspending a cell suspension at a density of 50,000 cells/mL in growth medium, then dispensing 60 microliters of cell suspension per well using either an electronic multichannel pipette or a Multidrop™ Combi Reagent Dispenser (ThermoFisher Scientific), corresponding to 3,000 cells/well. […]

The EC50 is the concentration needed to bring the measured effect to its halfway point. Turning to `CCC1=C(Cc2cc(C(F)(F)F)c(OC)cn2)C(=O)c2c(F)ccc(F)c2C1=O` [Example 134, 2-ethyl-5,8-difluoro-3-((5-methoxy-4-(trifluoromethyl)pyridin-2-yl)methyl)naphthalene-1,4-dione], the EC50 was below 50 nM. With `CCC1=C(Cc2cc(C)c(F)cn2)C(=O)c2c(F)ccc(F)c2C1=O` [Example 135, 2-ethyl-5,8-difluoro-3-((5-fluoro-4-methylpyridin-2-yl)methyl)naphthalene-1,4-dione], the EC50 was below 50 nM.

Turning to `CCC1=C(Cc2ccc(C(F)F)cn2)C(=O)c2c(F)ccc(F)c2C1=O` [Example 136, 2-((5-(difluoromethyl)pyridin-2-yl)methyl)-3-ethyl-5,8-difluoronaphthalene-1,4-dione], the EC50 is below 50 nM.

For `CCC1=C(Cc2ccc(C(C)(F)F)cn2)C(=O)c2ccccc2C1=O` [Example 137, 2-((5-(1,1-difluoroethyl)pyridin-2-yl)methyl)-3-ethylnaphthalene-1,4-dione], the EC50 is below 50 nM. In the case of `CCC1=C(Cc2ccc(OC(F)(F)F)cn2)C(=O)c2c(F)ccc(F)c2C1=O` [Example 138, 2-ethyl-5,8-difluoro-3-((5-(trifluoromethoxy)pyridin-2-yl)methyl)naphthalene-1,4-dione], the EC50 was below 50 nM.

For the compound `CCC1=C(Cc2ccc(C(F)(F)F)c(C)n2)C(=O)c2c(F)ccc(F)c2C1=O` [Example 139, 2-ethyl-5,8-difluoro-3-((6-methyl-5-(trifluoromethyl)pyridin-2-yl)methyl)naphthalene-1,4-dione], the EC50 was below 50 nM. Consider `CCC1=C(Cc2ccc(F)c(C)n2)C(=O)c2c(F)ccc(F)c2C1=O` [Example 140, 2-ethyl-5,8-difluoro-3-((5-fluoro-6-methylpyridin-2-yl)methyl)naphthalene-1,4-dione], for which the EC50 was below 50 nM. As for `CCC1=C(Cc2ccc(C(F)(F)C(F)(F)F)cn2)C(=O)c2c(F)ccc(F)c2C1=O` [Example 141, 2-ethyl-5,8-difluoro-3-((5-(perfluoroethyl)pyridin-2-yl)methyl)naphthalene-1,4-dione], the EC50 was below 50 nM. In the case of `CCC1=C(Cc2ccc(OC(F)(F)F)cn2)C(=O)c2c(F)cc(F)cc2C1=O` [Example 142, 2-ethyl-5,7-difluoro-3-((5-(trifluoromethoxy)pyridin-2-yl)methyl)naphthalene-1,4-dione], the EC50 was below 50 nM. In the case of `COc1cnc(CC2=C(C)C(=O)c3ccccc3C2=O)cc1C(F)(F)F` [Example 145, 2-((5-methoxy-4-(trifluoromethyl)pyridin-2-yl)methyl)-3-methylnaphthalene-1,4-dione], the EC50 was below 50 nM. With `CCC1=C(Cc2cc(C)c(F)cn2)C(=O)c2ccccc2C1=O` [Example 146, 2-ethyl-3-((5-fluoro-4-methylpyridin-2-yl)methyl)naphthalene-1,4-dione], the EC50 was below 50 nM. With `CCC1=C(Cc2cc(C(F)(F)F)c(OC)cn2)C(=O)c2ccccc2C1=O` [Example 147, 2-ethyl-3-((5-methoxy-4-(trifluoromethyl)141yridine-2-yl)methyl)naphthalene-1,4-dione], the concentration giving a half-maximal response (EC50) was below 50 nM. Consider `CCC1=C(Cc2ccc(C(F)(F)C(F)(F)F)cn2)C(=O)c2ccccc2C1=O` [Example 148, 2-ethyl-3-((5-(perfluoroethyl)142yridine-2-yl)methyl)naphthalene-1,4-dione], for which the EC50 is below 50 nM. In the case of `CCC1=C(Cc2cc(C(F)(F)F)c(C)cn2)C(=O)c2ccccc2C1=O` [Example 149, 2-ethyl-3-((5-methyl-4-(trifluoromethyl)pyridin-2-yl)methyl)naphthalene-1,4-dione], the EC50 is below 50 nM. Then `CC1=C(Cc2ccc(C(F)(F)F)c[n+]2[O-])C(=O)c2ccccc2C1=O` [Example 150, 2-((3-methyl-1,4-dioxo-1,4-dihydronaphthalen-2-yl)methyl)-5-(trifluoromethyl)pyridine 1-oxide], with below 50 nM.
